{"source": "patent US20220395458A1", "about": "“PREVENTION OF VISIBLE PARTICLE FORMATION IN AQUEOUS PROTEIN SOLUTIONS” (Hoffmann-La Roche Inc., priority 2019, published 2022)", "key": {"[1]": {"experiment": "Visible particles in E/P box (Ph. Eur. 2.9.20) after spiking FFA to inorganic salt solutions", "type": "physicochemical", "details": "FFA below solubility limit; for Visible particles E/P d0: d0 directly after spiking", "procedure": "Aqueous stock solutions were prepared in 0.02% PS20 (Croda. Edison, N.J., USA) at defined concentrations of (1) 5 mg/mL and (2) 12.5 mg/mL (lauric acid. Sigma-Aldrich/Merck. Darmstadt. Del.) or (1) 1.5 mg/mL and (2) 5 mg/mL (myristic acid, Sigma-Aldrich/Merck. Darmstadt. Del.) as previously described by Doshi et al.^6 The procedure was adapted that the FFA/PS20 stock solution was sterile filtered using 0.22 μm PVDF Steriflip filters (Merck Millipore. Darmstadt. Del.) before 1:10 dilution and subsequently homogenized without a magnetic stirrer using a Heidolph Rotamax 120 orbital shaker (Schwabach. Del.) at 100 rpm at 25° C., for 1 hour. After 1:500 dilution, the solution was homogenized for 1 hour at 25° C., before homogenization at 2-8° C., overnight, 12-40 μL of stock solution were used for spiking experiments yielding final FFA concentrations of (1) 10 μg/mL and (2) 25 μg/mL (lauric acid) or (1) 3 μg/mL and (2) 10 μg/mL (myristic acid). Dilutions with stock solutions 1 yield FFA concentration below their solubility limit, whereas stock solutions 2 act as positive control confirmed by the formation of visible particles. FFA concentrations were verified for selected by LC-MS samples acc. Honemann et al.^7\nAqueous stock solutions of different salts were prepared at 1 mg/mL and used for spiking experiments to final concentrations between […]. NaCl, NaAlO2. NaBO2. B2O3, and CaCl2 (Sigma-Aldrich/Merck. Darmstadt. Del.) were selected as their dissolution products (ions) represent typical glass leachables from Type I borosilicate glass. The pH of the NaAlO2 and NaBO2 stock solutions was adjusted to pH 6 using HCl and subsequently filtered using 0.22 μm PVDF Sterivex filters (Merck Millipore. Darmstadt. Del.) and true elemental concentrations were determined by inductively-coupled plasma mass spectrometry (ICP-MS). Elemental concentrations were 0,048 μg/mL Aluminium and 295 μg/mL sodium and 78 μg/mL boron and 168 μg/mL, respectively. Spiking experiments with FFA were performed in duplicates.\n(§1) Samples were analyzed by visual inspection on a Seidenader V 90-T instrument (Seidenader Maschinenbau GmbH. Markt Schwaben. Del.) as previously described by Ditter et al.^9 and using a black/white panel according Ph. Eur. 2.9.20.^10 and classified as Many particles (>7). Few particles (4-7), or Practically free of particles (0-4) in E/P box, and Many particles (>10). Few particles (6-10). Essentially free of particles (1-5), or Free of particles (0) by Seidenader.\n(§2) pH of all solutions was verified. Samples were visually inspected immediately after spiking and regularly for up to 7 days. Further characterization by HIAC, turbidity, FTIR, and SEM-EDX was performed on day 1 only. All samples were analyzed when equilibrated to room temperature (4 h).\n(§3) Different inorganic salt solutions, i.e. CaCl2. NaAlO2. NaBO2. B2O3, and NaCl, were prepared simulating artificial glass leachables. Myristic and lauric acid, as main degradation product from hydrolytic PS20 degradation, were added at concentrations below their solubility limit and samples were analyzed for visible particles. SVP, and turbidity. Samples were compared against relevant controls and the pH verified at pH 6."}, "[2]": {"experiment": "Visible particles by Seidenader after spiking FFA to inorganic salt solutions", "type": "physicochemical", "details": "for Visible particles in Seidenader: dependent on salt concentration over time, much lesser extent than CaCl2 and NaAlO2; for Visible particles Seidenader d0 / Visible particles Seidenader d1 / Visible particles Seidenader d2 / Visible particles Seidenader d7: FFA below solubility limit; for Visible particles Seidenader d0: d0 directly after spiking", "procedure": "Del.) at 100 rpm at 25° C., for 1 hour. […] FFA concentrations were verified for selected by LC-MS samples acc. Honemann et al.^7\n[…] NaCl, NaAlO2. NaBO2. B2O3, and CaCl2 (Sigma-Aldrich/Merck. Darmstadt. Del.) were selected as their dissolution products (ions) represent typical glass leachables from Type I borosilicate glass. The pH of the NaAlO2 and NaBO2 stock solutions was adjusted to pH 6 using HCl and subsequently filtered using 0.22 μm PVDF Sterivex filters (Merck Millipore. Darmstadt. Del.) and true elemental concentrations were determined by inductively-coupled plasma mass spectrometry (ICP-MS). […] Spiking experiments with FFA were performed in duplicates.\nas §1, §2, §3"}, "[3]": {"details": "CaCl2 250 μg/mL (Ca2+ 90 μg/mL)"}, "[4]": {"details": "CaCl2 500 μg/mL (Ca2+ 180 μg/mL)"}, "[5]": {"details": "CaCl2 1000 μg/mL (Ca2+ 360 μg/mL)"}, "[6]": {"details": "NaAlO2 nominal 250 μg/mL (0.012 μg/mL ion)"}, "[7]": {"details": "NaAlO2 nominal 500 μg/mL (0.024 μg/mL ion)"}, "[8]": {"details": "NaAlO2 nominal 1000 μg/mL (0.048 μg/mL ion)"}}, "data": [{"smiles": "CCCCCCCCCCCCCC(=O)O", "note": "[Myristic acid, myristic acid]", "values": [{"measurement": "Visible particles E/P d0", "setting": "[1]; [3]", "result": "/ (Practically free of particles (0-4, /) in E/P box)"}, {"measurement": "Visible particles E/P d1", "setting": "[1]; [3]", "result": "/ (Practically free of particles (0-4, /) in E/P box)"}, {"measurement": "Visible particles E/P d2", "setting": "[1]; [3]", "result": "/ (Practically free of particles (0-4, /) in E/P box)"}, {"measurement": "Visible particles E/P d7", "setting": "[1]; [3]", "result": "xxx (Many particles (>7, xxx))"}, {"measurement": "Visible particles E/P d0", "setting": "[1]; [4]", "result": "/ (Practically free of particles (0-4, /) in E/P box)"}, {"measurement": "Visible particles E/P d1", "setting": "[1]; [4]", "result": "xx (Few particles (4-7, xx))"}, {"measurement": "Visible particles E/P d7", "setting": "[1]; [4]", "result": "xxx (Many particles (>7, xxx))"}, {"measurement": "Visible particles E/P d0", "setting": "[1]; [5]", "result": "/ (Practically free of particles (0-4, /) in E/P box)"}, {"measurement": "Visible particles E/P d1", "setting": "[1]; [5]", "result": "xxx (Many particles (>7, xxx))"}, {"measurement": "Visible particles E/P d2", "setting": "[1]; [5]", "result": "xxx (Many particles (>7, xxx))"}, {"measurement": "Visible particles E/P d7", "setting": "[1]; [5]", "result": "xxx (Many particles (>7, xxx))"}, {"measurement": "Visible particles E/P d0", "setting": "[1]; [6]", "result": "/ (Practically free of particles (0-4, /) in E/P box)"}, {"measurement": "Visible particles E/P d1", "setting": "[1]; [6]", "result": "/ (Practically free of particles (0-4, /) in E/P box)"}, {"measurement": "Visible particles E/P d2", "setting": "[1]; [6]", "result": "/ (Practically free of particles (0-4, /) in E/P box)"}, {"measurement": "Visible particles E/P d7", "setting": "[1]; [6]", "result": "/ (Practically free of particles (0-4, /) in E/P box)"}, {"measurement": "Visible particles E/P d0", "setting": "[1]; [7]", "result": "/ (Practically free of particles (0-4, /) in E/P box)"}, {"measurement": "Visible particles E/P d1", "setting": "[1]; [7]", "result": "/ (Practically free of particles (0-4, /) in E/P box)"}, {"measurement": "Visible particles E/P d2", "setting": "[1]; [7]", "result": "/ (Practically free of particles (0-4, /) in E/P box)"}, {"measurement": "Visible particles E/P d0", "setting": "[1]; [8]", "result": "/ (Practically free of particles (0-4, /) in E/P box)"}, {"measurement": "Visible particles E/P d1", "setting": "[1]; [8]", "result": "/ (Practically free of particles (0-4, /) in E/P box)"}, {"measurement": "Visible particles E/P d7", "setting": "[1]; [8]", "result": "xxx (Many particles (>7, xxx))"}, {"measurement": "Visible particles in Seidenader", "setting": "[2]; B2O3 solution", "result": "visible particles were obtained"}, {"measurement": "Visible particles Seidenader d0", "setting": "[2]; [3]", "result": "xxx (Many particles (>10, xxx))"}, {"measurement": "Visible particles Seidenader d1", "setting": "[2]; [3]", "result": "xxx (Many particles (>10, xxx))"}, {"measurement": "Visible particles Seidenader d2", "setting": "[2]; [3]", "result": "xxx (Many particles (>10, xxx))"}, {"measurement": "Visible particles Seidenader d7", "setting": "[2]; [3]", "result": "xxx (Many particles (>10, xxx))"}, {"measurement": "Visible particles Seidenader d0", "setting": "[2]; [4]", "result": "xxx (Many particles (>10, xxx))"}, {"measurement": "Visible particles Seidenader d1", "setting": "[2]; [4]", "result": "xxx (Many particles (>10, xxx))"}, {"measurement": "Visible particles Seidenader d2", "setting": "[2]; [4]", "result": "xxx (Many particles (>10, xxx))"}, {"measurement": "Visible particles Seidenader d7", "setting": "[2]; [4]", "result": "xxx (Many particles (>10, xxx))"}, {"measurement": "Visible particles Seidenader d0", "setting": "[2]; [5]", "result": "xxx (Many particles (>10, xxx))"}, {"measurement": "Visible particles Seidenader d1", "setting": "[2]; [5]", "result": "xxx (Many particles (>10, xxx))"}, {"measurement": "Visible particles Seidenader d2", "setting": "[2]; [5]", "result": "xxx (Many particles (>10, xxx))"}, {"measurement": "Visible particles Seidenader d7", "setting": "[2]; [5]", "result": "xxx (Many particles (>10, xxx))"}, {"measurement": "Visible particles Seidenader d1", "setting": "[2]; [6]", "result": "x (Essentially free of particles (1-5, x))"}, {"measurement": "Visible particles Seidenader d2", "setting": "[2]; [6]", "result": "x (Essentially free of particles (1-5, x))"}, {"measurement": "Visible particles Seidenader d7", "setting": "[2]; [6]", "result": "xxx (Many particles (>10, xxx))"}, {"measurement": "Visible particles Seidenader d2", "setting": "[2]; [7]", "result": "x (Essentially free of particles (1-5, x))"}, {"measurement": "Visible particles Seidenader d7", "setting": "[2]; [7]", "result": "xxx (Many particles (>10, xxx))"}, {"measurement": "Visible particles Seidenader d0", "setting": "[2]; [8]", "result": "x (Essentially free of particles (1-5, x))"}, {"measurement": "Visible particles Seidenader d7", "setting": "[2]; [8]", "result": "xxx (Many particles (>10, xxx))"}, {"measurement": "Visible particles in Seidenader", "setting": "[2]; NaBO2 solution", "result": "visible particles were obtained"}]}]}
